# Laboratory results as given in patent US10457710B2, “Antimicrobial peptides, their variants and uses” (priority 2015, dated 2019).
# Where a SMILES comes first, the peptide text is derived from it. [ ]: non-standard residue; d: D form.
# Assays:
# Type in all cases: cell-based
# [1] = tested on: clinical strains of P. aeruginosa; assay: MIC, microdilution, clinical strains; settings: 0.02% BSA, 0.2% acetic acid
# Procedure: (§1) Minimum inhibition concetrations (MICs) were determined against Escherichia coli (ATCC 25922), Staphylococcus aureus (ATCC 25923), Klebsiella pneumoniae (ATCC 10031) and Pseudomonas aeruginosa (ATCC 27853). Also clinical strains of E. coli, K. pneumoniae, E. cloacae, P. aeruginosa, Serratia marcescens, Proteus mirabilis, S. pneumoniae, Acinetobacter baumannii, A. johnsonii and S. aureus were used for MICs assays. Additionally, clinical strains of yeast including Candida albicans, C. glabrata, C. parapsilosis and C. quillermondiae were used. The susceptibility of these microorganisms to Chain peptides were determined using micro broth dilution assay. Colonies of the respective microorganism from Muller Hinton (MH) agar plates incubated overnight were suspended in MH broth media and final concentration of microorganism was adjusted to 5.0×10^5 cfu/ml. An aliquot of 10 μl of each Chain peptide, or gentamicin, tetracycline as reference antibiotics were added in differing concentrations along with 90 μl of bacterial suspension to 96 well polypropylene plates and incubated at 37° C. for 20 to 24 hours. Concentrations of Chain peptides and reference antibiotics ranged from 0.125 to 128 μg/ml and the MICs were recorded as the lowest concentration with no visual growth of bacteria. Similarly, antifungal MICs were tested in Potato dextrose broth.
# (§2) Clinical strains of yeasts including Candida albicans, C. glabrata, C. parapsilosis and C. quillermondiae were also tested with the 12 Chain peptides. The minimum inhibitory concentration (MICs) varied between these peptides and are presented in Tables 4a, 4b, 4c and 5a, 5b, 5c. Peptides Chain 105, 201 and 308 are broad spectrum antimicrobials with MICs between 0.5-32 μg/ml against all the bacteria and yeasts tested, except Serratia marcescens and Proteus mirabilis, against which the MICs were between 64-128 μg/ml. Peptide Chain 306 has narrow spectrum activity against E. coli at 1 μg/ml and for the rest of the bacterial strains at >32 μg/ml (FIG. 10c).
# [2] = tested on: clinical strains of S. aureus; assay: MIC, microdilution, clinical strains; settings: 0.02% BSA, 0.2% acetic acid
# Procedure: as §1, §2
# [3] = tested on: clinical strains of Serratia marcescens; assay: MIC, microdilution, clinical strains; settings: 0.02% BSA, 0.2% acetic acid
# Procedure: as §1, §2
# [4] = tested on: clinical strains of Proteus mirabilis; assay: MIC, microdilution, clinical strains; settings: 0.02% BSA, 0.2% acetic acid
# Procedure: as §1, §2
# [5] = tested on: clinical strains of E. cloacae; assay: MIC, microdilution, clinical strains; settings: 0.02% BSA, 0.2% acetic acid
# Procedure: as §1, §2
# [6] = tested on: clinical strains of E. coli; assay: MIC, microdilution, clinical strains; settings: microdilution, Muller Hinton broth-cation adjusted, 0.02% BSA, 0.2% acetic acid
# Procedure: as §1, §2
# [7] = tested on: clinical strains of K. pneumoniae; assay: MIC, microdilution, clinical strains; settings: 0.02% BSA, 0.2% acetic acid
# Procedure: as §1, §2
# [8] = tested on: clinical strains of S. pneumoniae; assay: MIC, microdilution, clinical strains; settings: 0.02% BSA, 0.2% acetic acid
# Procedure: as §1, §2
# C. parapsilosis = assay: MIC, clinical yeast strains
# Procedure: as §1, §2
# Candida albicans = assay: MIC, clinical yeast strains
# Procedure: as §1, §2
# C. glabrata = assay: MIC, clinical yeast strains
# Procedure: as §1, §2
# C. quillermondiae = assay: MIC, clinical yeast strains; set-up: Minimum inhibitory concentration: unit: μg/ml; settings: C. quillermondiae clinical yeast strain 1
# Procedure: as §1, §2
# [9] = C. parapsilosis clinical yeast strain 1
# [10] = C. parapsilosis clinical yeast strain 2
# [11] = C. parapsilosis clinical yeast strain 3
# [12] = C. parapsilosis clinical yeast strain 4
# [13] = Candida albicans clinical yeast strain 1
# [14] = Candida albicans clinical yeast strain 2
# [15] = Candida albicans clinical yeast strain 3
# [16] = Candida albicans clinical yeast strain 4
# [17] = Candida albicans clinical yeast strain 5
# [18] = C. glabrata clinical yeast strain 1
# [19] = C. glabrata clinical yeast strain 2
# [20] = C. glabrata clinical yeast strain 3
# [21] = C. glabrata clinical yeast strain 4
smiles,measurement,setting,value
CC(C)C[C@@H](NC(=O)[C@@H](Cc1c[nH]c2ccccc12)NC(=O)[C@@H](Cc1ccccc1)NC(=O)[C@@H](Cc1c[nH]c2ccccc12)NC(=O)[C@@H](CCCCN)NC(=O)[C@@H](CCCNC(=N)N)NC(=O)[C@H](N)Cc1c[nH]c2ccccc12)C(=O)N[C@H](Cc1ccccc1)C(=O)N[C@H](CCCCN)C(=O)N[C@H](CCCCN)C(=O)N[C@H](CCCNC(=N)N)C(=O)O [Chain309D] (H-[dW][dR][dK][dW][dF][dW][dL][dF][dK][dK][dR]-OH),Minimum inhibitory concentration,"[1]; Pseudomonas aeruginosa strain 1, Muller Hinton broth-cation adjusted",16
same,Minimum inhibitory concentration,"[1]; Pseudomonas aeruginosa strain 2, Muller Hinton broth-cation adjusted",32
same,Minimum inhibitory concentration,"[1]; Pseudomonas aeruginosa strain 3, Muller Hinton broth-cation adjusted",16
same,Minimum inhibitory concentration,"[1]; Pseudomonas aeruginosa strain 4, Muller Hinton broth-cation adjusted",32
same,Minimum inhibitory concentration,"[1]; Pseudomonas aeruginosa strain 5, Muller Hinton broth-cation adjusted",8
same,Minimum inhibitory concentration,"[2]; Staphylococcus aureus strain 1, Muller Hinton broth-cation adjusted",8
same,Minimum inhibitory concentration,"[2]; Staphylococcus aureus strain 2, Muller Hinton broth-cation adjusted",16
same,Minimum inhibitory concentration,"[2]; Staphylococcus aureus strain 3, Muller Hinton broth-cation adjusted",8
same,Minimum inhibitory concentration,"[2]; Staphylococcus aureus strain 4, Muller Hinton broth-cation adjusted",8
same,Minimum inhibitory concentration,"[2]; Staphylococcus aureus strain 5, Muller Hinton broth-cation adjusted",8
same,Minimum inhibitory concentration,"[3]; Serratia marcescens strain 1, Muller Hinton broth-cation adjusted",>128
same,Minimum inhibitory concentration,"[3]; Serratia marcescens strain 2, Muller Hinton broth-cation adjusted",>128
same,Minimum inhibitory concentration,"[3]; Serratia marcescens strain 3, Muller Hinton broth-cation adjusted",>128
same,Minimum inhibitory concentration,"[3]; Serratia marcescens strain 4, Muller Hinton broth-cation adjusted",>128
same,Minimum inhibitory concentration,"[3]; Serratia marcescens strain 5, Muller Hinton broth-cation adjusted",>128
same,Minimum inhibitory concentration,"[4]; Proteus mirabilis strain 1, Muller Hinton broth-cation adjusted",>128
same,Minimum inhibitory concentration,"[4]; Proteus mirabilis strain 2, Muller Hinton broth-cation adjusted",>128
same,Minimum inhibitory concentration,"[4]; Proteus mirabilis strain 3, Muller Hinton broth-cation adjusted",>128
same,Minimum inhibitory concentration,"[4]; Proteus mirabilis strain 4, Muller Hinton broth-cation adjusted",>128
same,Minimum inhibitory concentration,"[4]; Proteus mirabilis strain 5, Muller Hinton broth-cation adjusted",>128
same,Minimum inhibitory concentration,"[5]; Enterobacter cloacae strain 1, Muller Hinton broth-cation adjusted",>128
same,Minimum inhibitory concentration,"[5]; Enterobacter cloacae strain 2, Muller Hinton broth-cation adjusted",128
same,Minimum inhibitory concentration,"[5]; Enterobacter cloacae strain 3, Muller Hinton broth-cation adjusted",64
same,Minimum inhibitory concentration,"[5]; Enterobacter cloacae strain 4, Muller Hinton broth-cation adjusted",64
same,Minimum inhibitory concentration,"[5]; Enterobacter cloacae strain 5, Muller Hinton broth-cation adjusted",32
same,Minimum inhibitory concentration,[6]; Escherichia coli strain 1,0.5
same,Minimum inhibitory concentration,[6]; Escherichia coli strain 2,32
same,Minimum inhibitory concentration,[6]; Escherichia coli strain 3,16
same,Minimum inhibitory concentration,[6]; Escherichia coli strain 4,32
same,Minimum inhibitory concentration,[6]; Escherichia coli strain 5,16
same,Minimum inhibitory concentration,"[7]; Klebsiella pneumoniae strain 1, Muller Hinton broth-cation adjusted",128
same,Minimum inhibitory concentration,"[7]; Klebsiella pneumoniae strain 2, Muller Hinton broth-cation adjusted",32
same,Minimum inhibitory concentration,"[7]; Klebsiella pneumoniae strain 3, Muller Hinton broth-cation adjusted",>128
same,Minimum inhibitory concentration,"[7]; Klebsiella pneumoniae strain 4, Muller Hinton broth-cation adjusted",32
same,Minimum inhibitory concentration,"[7]; Klebsiella pneumoniae strain 5, Muller Hinton broth-cation adjusted",128
same,Minimum inhibitory concentration,"[8]; Streptococcus pneumoniae strain 1, Muller Hinton broth-cation adjusted",64
same,Minimum inhibitory concentration,"[8]; Streptococcus pneumoniae strain 2, Muller Hinton broth-cation adjusted",64
same,Minimum inhibitory concentration,"[8]; Streptococcus pneumoniae strain 3, Muller Hinton broth-cation adjusted",64
same,Minimum inhibitory concentration,"[8]; Streptococcus pneumoniae strain 4, Muller Hinton broth-cation adjusted",64
same,Minimum inhibitory concentration,"[8]; Streptococcus pneumoniae strain 5, Muller Hinton broth-cation adjusted",64
same,Minimum inhibitory concentration,C. parapsilosis; [9],64
same,Minimum inhibitory concentration,C. parapsilosis; [10],64
same,Minimum inhibitory concentration,C. parapsilosis; [11],32
same,Minimum inhibitory concentration,C. parapsilosis; [12],16
same,Minimum inhibitory concentration,Candida albicans; [13],32
same,Minimum inhibitory concentration,Candida albicans; [14],32
same,Minimum inhibitory concentration,Candida albicans; [15],16
same,Minimum inhibitory concentration,Candida albicans; [16],16
same,Minimum inhibitory concentration,Candida albicans; [17],32
same,Minimum inhibitory concentration,C. glabrata; [18],32
same,Minimum inhibitory concentration,C. glabrata; [19],64
same,Minimum inhibitory concentration,C. glabrata; [20],4
same,Minimum inhibitory concentration,C. glabrata; [21],128
same,Minimum inhibitory concentration,C. quillermondiae,8
C[C@@H]1[C@H](O)[C@@H](C)/C=C/C=C/C=C/C=C/C=C/C=C/C=C/[C@H](O[C@@H]2O[C@H](C)[C@@H](O)[C@H](N)[C@@H]2O)C[C@@H]2O[C@](O)(C[C@@H](O)C[C@@H](O)[C@H](O)CC[C@@H](O)C[C@@H](O)CC(=O)O[C@H]1C)C[C@H](O)[C@H]2C(=O)O [Amphotericin B],Minimum inhibitory concentration,C. parapsilosis; [9],2
same,Minimum inhibitory concentration,C. parapsilosis; [10],2
same,Minimum inhibitory concentration,C. parapsilosis; [11],2
same,Minimum inhibitory concentration,C. parapsilosis; [12],2
same,Minimum inhibitory concentration,Candida albicans; [13],2
same,Minimum inhibitory concentration,Candida albicans; [14],0.5
same,Minimum inhibitory concentration,Candida albicans; [15],2
same,Minimum inhibitory concentration,Candida albicans; [16],2
same,Minimum inhibitory concentration,Candida albicans; [17],2
same,Minimum inhibitory concentration,C. glabrata; [18],4
same,Minimum inhibitory concentration,C. glabrata; [19],4
same,Minimum inhibitory concentration,C. glabrata; [20],2
same,Minimum inhibitory concentration,C. glabrata; [21],4
same,Minimum inhibitory concentration,C. quillermondiae,2
